Laboratory results: patent US7968526B2, “Antisense oligonucleotides directed to ribonucleotide reductase R2 and uses thereof in the treatment of cancer” (Lorus Therapeutics Inc., priority 2003, dated 2011)
Entries after “also recorded” stand apart in the source; their conditions may differ.

Tests used:
[1] = test system: Hep G2 human liver cancer cells; experiment: HepG2 liver tumour growth in CD-1 nude mice (3.7); format: in vivo, human cells in mice
Description: Treatments lasted for 14 days thereafter. Antitumour activities were estimated by the inhibition of tumour volume, which was measured with a caliper on four different occasions over the treatment period. Each point represents mean tumour volume calculated from 5 animals per experimental group. […] Control animals (control) received saline alone for the same period. At the end of the treatments, the animals were sacrificed, tumours were excised and their weights were measured. Each bar represents mean tumour weight calculated from 6 animals per experimental group. […] Treatments lasted for 24 days thereafter. Antitumour activities were estimated by the inhibition of tumour volume, which was measured with a caliper at two-day intervals over the treatment period. Each point represents mean tumour volume calculated from 4 animals per experimental group. […] Treatments lasted for 24 days thereafter. Antitumour activities were estimated by the inhibition of tumour volume, which was measured with a caliper at two-day intervals over the treatment period. Each point represents mean tumour volume calculated from 4 animals per experimental group. […] Treatments lasted for 22 days thereafter. […] Each point represents mean tumour volume calculated from 5 animals per experimental group. […] Treatments lasted for 14 days thereafter. Antitumour activities were estimated by the inhibition of tumour volume, which was measured with a caliper on four different occasions over 16-day period. Each point represents mean tumour volume calculated from 5 animals per experimental group. […] Two different batches of SEQ ID NO:1, synthesized at different times (designated as batch 1 and batch 2), were tested to detect possible batch-specific effects. […] Treatments lasted for 34 days thereafter. Antitumour activities were estimated by the inhibition of tumour volume, which was measured with a caliper at two-day intervals over the treatment period. Each point represents mean tumour volume calculated from 5 animals per experimental group. […] Treatments lasted for 30 days thereafter. Antitumour activities were estimated by the inhibition of tumour volume, which was measured with a caliper at various time intervals over the span of 30 days. Each point represents mean tumour volume calculated from 6 animals per experimental group. […] All treatments were stopped at day 36. Antitumour activities were estimated by the inhibition of tumour volume, which was measured with a caliper. Each point represents mean tumour volume calculated from 5 animals per experimental group. […] All treatments were stopped at day 52. […] Antitumour activities were estimated by the inhibition of tumour volume, which was measured with a caliper.

[2] = test system: MDA-CDDP-S4 human in vivo-selected Cisplatin-resistant breast adenocarcinoma cells; experiment: MDA-CDDP-S4 Cisplatin-resistant breast adenocarcinoma, fat pad, CB-17 SCID mice, combination with Taxol (2.4); parameters: species or system human cells in mice; settings: SEQ ID NO:1 10 mg/kg i.v. every other day, Taxol 10 mg/kg i.p. weekly; for Tumour weight as % of saline control: MDA-CDDP-S4 (breast), Cisplatin resistant, SCID
Description: BxPC-3 is a gemcitabine resistant call line. […] Gemcitabine was administered intravenously every three days at a dose of 100 mg/kg. Antitumour activities were estimated by the inhibition of tumour volume, which was measured with caliper. Each point represents mean tumour volume calculated from 10 animals per experimental group. […] Hela S3 is a hydroxyurea resistant cell line. […] Hydroxyurea was administered intraperitoneally every day at a dose of 250 mg/kg for 10 days. Cisplatin was administered intravenously once a week for three weeks at a dose of 4 mg/kg. Antitumour activities were estimated by the inhibition of tumour volume, which was measured with caliper. Each point represents mean tumour volume calculated from 10 animals per experimental group. […] Cisplatin was administered intravenously once a week for three weeks at a dose of 4 mg/kg. Taxol was administered intravenously once a week for three weeks at a dose of 10 mg/kg. Antitumour activities were estimated by the inhibition of tumour volume, which was measured with caliper. Each point represents mean tumour volume calculated from 10 animals per experimental group. […] Taxol was administered i.p. once a week at a dose of 10 mg/kg. Antitumour activities were estimated by the inhibition of tumour volume (FIG. 12A), which was measured with calipers. Each point represents mean tumour volume calculated from 10 animals per experimental group. Animals were sacrificed and tumour weights taken at the end of the study (FIG. 12C). […] Cisplatin was administered intravenously once a week for four weeks at a dose of 4 mg/kg. Taxol was administered intravenously once a week for four weeks at a dose of 20 mg/kg. Antitumour activities were estimated by the inhibition of tumour volume, which was measured with caliper. Each point represents mean tumour volume calculated from 9-10 animals per experimental group. […] Cisplatin was administered intravenously once a week for four weeks at a dose of 4 mg/kg. Antitumour activities were estimated by the inhibition of tumour volume, which was measured with caliper. Each point represents mean tumour volume calculated from 10 animals per experimental group. At the end of the study the animals were sacrificed and tumours weighed. […] Taxol was administered i.p. once a week at a dose of 10 mg/kg. Anti-tumour activity was estimated by the inhibition of tumour volume, which was measured with caliper. Each point represents mean tumour volume calculated from 10 animals per experimental group. In addition animals were sacrificed and tumour weights taken at the end of the study. […] CPT-11 was administered i.p. for 5 days at a dose of 20 mg/kg/day. Antitumour activities were estimated by the inhibition of tumour volume, which was measured with caliper. Each point represents mean tumour volume calculated from 10 animals per experimental group. Tumour weights were measured after animals were sacrificed at the end of the treatment. These cells are not resistant to CPT-11 which was used as a positive control.

[3] = 21-day intravenous toxicity study in the rat with a 21-day recovery; format: in vivo, Sprague-Dawley rats
Description: SEQ ID NO:1 was administered to Sprague-Dawley rats via intravenous bolus injection every second day up to 21 days, with a 21-day recovery period. The study design included 4 treatment groups; vehicle controls, 2 mg/kg, 10 mg/kg, and 50 mg/kg. The main study group consisted of 10 animals/sex, and an additional 5 animals/sex were included in the control and high-dose groups for a recovery phase. Satellite animals (6/sex/group) were also included for toxicokinetic analysis.

[4] = 50 mg/kg i.v. bolus every second day up to 21 days

## 5′-GGCTAAATCGCTCCACCAAG-3′ (all phosphorothioate, sugars by position and methylation of C not given here) [SEQ ID NO: 1, fully phosphorothioated antisense oligonucleotide that hybridizes to the coding region of R2 mRNA]
[1]; Hep G2, CD-1 nude mice, 2.5 mg/kg i.v. every day, 30 days
  Inhibitory effect on tumour growth (tumour volume, FIG. 20): significant inhibitory effects on the growth of human hepatoma cells
[1]; Human Liver Carcinoma
  Inhibition of tumour weight: ~65%
[1]; Human Liver Carcinoma in CD-1 nude mice, Day 30 after tumour implantation
  Inhibition of tumour size: Inhibition of tumour size by 45% in CD-1 nude
[2]; first of two printed values (study and repeat)
  Tumour weight as % of saline control: 18%
[2]; second of two printed values (study and repeat)
  Tumour weight as % of saline control: 41%
[2]; MDA-CDDP-S4 Cisplatin-resistant, CB-17 SCID mice
  Antitumour effect (FIG. 12): significant reduction of tumour weight compared to saline control; also recorded: superior to the inhibitory effects observed with Taxol
[3]; 2 mg/kg i.v. bolus every second day up to 21 days
  Toxicity findings: no remarkable effects on any of the above parameters
[3]; 10 mg/kg i.v. bolus every second day up to 21 days
  Toxicity findings: no clinical signs, no effects on body weight or food consumption, a lesser degree of anemia and thrombocytopenia, and only minor changes in a few serum chemistry parameters
[3]; [4]
  Mortality: A single mortality
  Toxicity findings: various adverse clinical signs, a decrement in body weight gain (associated with diminished food consumption), lymphocytosis, moderate anemia and thrombocytopenia, and various relatively mild changes in serum chemistry parameters
[3]; 10 and 50 mg/kg
  Target organs (histopathology): lymphoid system, kidneys, and liver
[3]; 21-day study
  no-adverse-effect-level (NOAEL): 2 mg/kg/day
